Experimental data published in ChEMBL document CHEMBL3045179, “Mode of Action and QSAR Studies of Nitrification Inhibitors” (J Pestic Sci, 1997).

Assays:
Nitrosomonas europaea [1] = test: Inhibition of Nitrosomonas europaea ATCC 25978-mediated nitrification activity assessed as nitrite nitrogen formation at 200 mg/kg after 7 to 10 days by Griess-Ilosvay method relative to control; assay type: functional
[2] = Octanol-water partition coefficient, log P of the compound; assay type: physicochemical
Nitrosomonas sp. TK794 [3] = test: Inhibition of Nitrosomonas sp. TK794-mediated nitrification activity assessed as nitrite nitrogen formation at 500 mg/kg after 7 to 10 days by Griess-Ilosvay method relative to control; assay type: functional
Nitrosomonas europaea [4] = test: Inhibition of Nitrosomonas europaea ATCC 25978-mediated nitrification activity assessed as nitrite nitrogen formation after 7 to 10 days by Griess-Ilosvay method; assay type: functional, organism-based; conditions: read-out: pI50 (converted)
Nitrosomonas europaea [5] = test: Inhibition of Nitrosomonas europaea ATCC 25978-mediated nitrification activity assessed as nitrite nitrogen formation at 0.1 mg/kg after 7 to 10 days by Griess-Ilosvay method relative to control; assay type: functional; conditions: values are per cent of control
Nitrosomonas sp. TK794 [6] = test: Inhibition of Nitrosomonas sp. TK794-mediated nitrification activity assessed as nitrite nitrogen formation at 1 mg/kg after 7 to 10 days by Griess-Ilosvay method relative to control; assay type: functional
Nitrosomonas europaea [7] = test: Inhibition of Nitrosomonas europaea ATCC 25978-mediated nitrification activity assessed as nitrite nitrogen formation at 0.5 mg/kg after 7 to 10 days by Griess-Ilosvay method relative to control; assay type: functional; conditions: values are per cent of control
Nitrosomonas sp. TK794 [8] = test: Inhibition of Nitrosomonas sp. TK794-mediated nitrification activity assessed as nitrite nitrogen formation at 0.5 mg/kg after 7 to 10 days by Griess-Ilosvay method relative to control; assay type: functional
Nitrosomonas europaea [9] = test: Inhibition of Nitrosomonas europaea ATCC 25978-mediated nitrification activity assessed as nitrite nitrogen formation at 1 mg/kg after 7 to 10 days by Griess-Ilosvay method relative to control; assay type: functional; conditions: values are per cent of control
Nitrosomonas sp. TK794 [10] = test: Inhibition of Nitrosomonas sp. TK794-mediated nitrification activity assessed as nitrite nitrogen formation at 4 mg/kg after 7 to 10 days by Griess-Ilosvay method relative to control; assay type: functional
Nitrosomonas europaea [11] = test: Inhibition of Nitrosomonas europaea ATCC 25978-mediated nitrification activity assessed as nitrite nitrogen formation at 2 mg/kg after 7 to 10 days by Griess-Ilosvay method relative to control; assay type: functional
Nitrosomonas sp. TK794 [12] = test: Inhibition of Nitrosomonas sp. TK794-mediated nitrification activity assessed as nitrite nitrogen formation at 5 mg/kg after 7 to 10 days by Griess-Ilosvay method relative to control; assay type: functional
Nitrosomonas sp. TK794 [13] = test: Inhibition of Nitrosomonas sp. TK794-mediated nitrification activity assessed as nitrite nitrogen formation at 0.1 mg/kg after 7 to 10 days by Griess-Ilosvay method relative to control; assay type: functional
Nitrosomonas europaea [14] = test: Inhibition of Nitrosomonas europaea ATCC 25978-mediated nitrification activity assessed as nitrite nitrogen formation at 10 mg/kg after 7 to 10 days by Griess-Ilosvay method relative to control; assay type: functional
Nitrosomonas sp. TK794 [15] = test: Inhibition of Nitrosomonas sp. TK794-mediated nitrification activity assessed as nitrite nitrogen formation at 200 mg/kg after 7 to 10 days by Griess-Ilosvay method relative to control; assay type: functional
Nitrosomonas sp. TK794 [16] = test: Inhibition of Nitrosomonas sp. TK794-mediated nitrification activity assessed as nitrite nitrogen formation at 50 mg/kg after 7 to 10 days by Griess-Ilosvay method relative to control; assay type: functional

SMILES | IC50 (Nitrosomonas europaea [4]) [nM] | logP ([2]; read-out: logP) | residual activity at 0.1 mg/kg (Nitrosomonas europaea [5]) [%] | other results
CCCCCCCCCCCCCCCCNc1nc(C(Cl)(Cl)Cl)nc(C(Cl)(Cl)Cl)n1 | – | – | – | inhibition in vivo at 200 mg/kg (Nitrosomonas europaea [1]): 52.8%; logP [2]: 11.05; inhibition in vivo at 500 mg/kg (Nitrosomonas sp. TK794 [3]): 52.9%
Cc1nc(N(C)C)nc(C(Cl)(Cl)Cl)n1 | – | 4.07 | – | inhibition in vivo at 1 mg/kg (Nitrosomonas sp. TK794 [6]): 58.7%
Fc1ccc(Oc2nc(C(Cl)(Cl)Cl)nc(C(Cl)(Cl)Cl)n2)c(Cl)c1 | 1100 | 5.74 | – | residual activity at 0.5 mg/kg (Nitrosomonas europaea [7]): 52.2%; inhibition in vivo at 1 mg/kg (Nitrosomonas sp. TK794 [6]): 57.8%
Cc1nc(Nc2ccccc2)nc(C(Cl)(Cl)Cl)n1 | 501 | 4.7 | 66 | inhibition in vivo at 1 mg/kg (Nitrosomonas sp. TK794 [6]): 39%
CCNc1nc(-c2ccccc2)nc(C(Cl)(Cl)Cl)n1 | 380 | 5.23 | 45.3 | inhibition in vivo at 0.5 mg/kg (Nitrosomonas sp. TK794 [8]): 47.8%
Nc1nc(N)nc(C(Cl)(Cl)Cl)n1 | 7080 | 1.21 | – | inhibition in vivo at 4 mg/kg (Nitrosomonas sp. TK794 [10]): 40%; inhibition in vivo at 2 mg/kg (Nitrosomonas europaea [11]): 63.2%
Clc1cccc(C(Cl)(Cl)Cl)n1 [NITRAPYRIN] | 1910 | – | – | inhibition in vivo at 5 mg/kg (Nitrosomonas sp. TK794 [12]): 22.9%; residual activity at 1 mg/kg (Nitrosomonas europaea [9]): 30.1%
CCNc1nc(OC)nc(C(Cl)(Cl)Cl)n1 | 331 | 3.57 | 49.1 | inhibition in vivo at 0.1 mg/kg (Nitrosomonas sp. TK794 [13]): 56.8%
CN(C)c1nc(-c2ccccc2)nc(C(Cl)(Cl)Cl)n1 | 1700 | 5.4 | – | inhibition in vivo at 5 mg/kg (Nitrosomonas sp. TK794 [12]): 43%; residual activity at 1 mg/kg (Nitrosomonas europaea [9]): 40.1%
Cc1nc(C(Cl)(Cl)Cl)nc(C(Cl)(Cl)Cl)n1 | 708 | 4.07 | – | residual activity at 0.5 mg/kg (Nitrosomonas europaea [7]): 47.2%; inhibition in vivo at 0.5 mg/kg (Nitrosomonas sp. TK794 [8]): 65%
CCCOc1nc(SC)nc(C(Cl)(Cl)Cl)n1 | 257 | 5.17 | 47.6 | inhibition in vivo at 1 mg/kg (Nitrosomonas sp. TK794 [6]): 60%
CCCNc1nc(-c2ccccc2)nc(C(Cl)(Cl)Cl)n1 | 389 | 5.75 | 50.1 | inhibition in vivo at 0.5 mg/kg (Nitrosomonas sp. TK794 [8]): 58.1%
CCNc1nc(C(Cl)(Cl)Cl)nc(C(Cl)(Cl)Cl)n1 | 257 | 3.68 | 52.7 | –
COc1nc(C)nc(C(Cl)(Cl)Cl)n1 | – | 3.98 | – | inhibition in vivo at 0.5 mg/kg (Nitrosomonas sp. TK794 [8]): 32%
COc1nc(N)nc(C(Cl)(Cl)Cl)n1 | 490 | 2.36 | 36.1 | inhibition in vivo at 0.5 mg/kg (Nitrosomonas sp. TK794 [8]): 29.5%

More lines, main results first:

IC50 (Nitrosomonas europaea [4]) [nM] | logP ([2]; read-out: logP) | SMILES | residual activity at 0.1 mg/kg (Nitrosomonas europaea [5]) [%] | other results
955 | 6.17 | CCCCN(CC)c1nc(C)nc(C(Cl)(Cl)Cl)n1 | 52.9 | –
2090 | 7.23 | CCCCN(CCCC)c1nc(C)nc(C(Cl)(Cl)Cl)n1 | – | residual activity at 1 mg/kg (Nitrosomonas europaea [9]): 56.2%; inhibition in vivo at 1 mg/kg (Nitrosomonas sp. TK794 [6]): 56.8%
589 | 3.14 | CNc1nc(C(Cl)(Cl)Cl)nc(C(Cl)(Cl)Cl)n1 | 69.6 | –
3020 | 7.72 | CCCCCCCCCNc1nc(C)nc(C(Cl)(Cl)Cl)n1 | – | inhibition in vivo at 5 mg/kg (Nitrosomonas sp. TK794 [12]): 55%; residual activity at 1 mg/kg (Nitrosomonas europaea [9]): 59%
617 | 5.65 | CCCCc1nc(C(Cl)(Cl)Cl)nc(C(Cl)(Cl)Cl)n1 | – | residual activity at 1 mg/kg (Nitrosomonas europaea [9]): 29.5%; inhibition in vivo at 1 mg/kg (Nitrosomonas sp. TK794 [6]): 33.6%
457 | 3.59 | COc1nc(C(Cl)(Cl)Cl)nc(C(Cl)(Cl)Cl)n1 | 27.4 | inhibition in vivo at 1 mg/kg (Nitrosomonas sp. TK794 [6]): 47.8%
45700 | – | CCCCCCCCCCCCNc1nc(C)nc(C(Cl)(Cl)Cl)n1 | – | inhibition in vivo at 10 mg/kg (Nitrosomonas europaea [14]): 69.4%; logP [2]: 9.3; inhibition in vivo at 500 mg/kg (Nitrosomonas sp. TK794 [3]): 33.2%
501 | 5.61 | CCCCCNc1nc(C)nc(C(Cl)(Cl)Cl)n1 | 61.5 | –
– | 5.26 | ClC(Cl)(Cl)c1nc(-c2ccccc2)nc(C(Cl)(Cl)Cl)n1 | – | inhibition in vivo at 200 mg/kg (Nitrosomonas sp. TK794 [15]): 65.8%
363 | 4.02 | Nc1nc(-c2ccccc2)nc(C(Cl)(Cl)Cl)n1 | – | inhibition in vivo at 5 mg/kg (Nitrosomonas sp. TK794 [12]): 49.7%; residual activity at 1 mg/kg (Nitrosomonas europaea [9]): 20.8%
9120 | 8.27 | CCCCCCCCCCNc1nc(C)nc(C(Cl)(Cl)Cl)n1 | – | inhibition in vivo at 10 mg/kg (Nitrosomonas europaea [14]): 56.2%; inhibition in vivo at 50 mg/kg (Nitrosomonas sp. TK794 [16]): 50%
– | 4.33 | ClC(Cl)(Cl)c1nc(Nc2ccccc2)nc(C(Cl)(Cl)Cl)n1 | – | inhibition in vivo at 0.5 mg/kg (Nitrosomonas sp. TK794 [8]): 55%
